Experimental data taken from patent US6777435B1, “Crystals of an oxyiminoalkanoic acid derivative and their use as antidiabetics” (Takeda Chemical Industries, Ltd., priority 1999, dated 2004).

Experiments:
Wistar fatty rats = assay: Hypoglycemic and hypolipidemic actions in rats; type: in vivo; conditions: 1 mg/kg/day orally for seven days, percentage reduction compared with non-treatment group
Protocol: Crystals of the test compound were suspended in an amount of 1 mg/5 ml in a 0.5% methyl cellulose solution and compulsorily administered orally at the dose of 1 mg/kg/day to Wistar fatty rats (27-30 weeks old; five rats in a group), a model of obesity and type 2 diabetes mellitus, for seven days successively. During that period, diet and water were given freely. Blood was sampled from tail vein and measurement of the components was carried out using serum. Glucose was quantified using L-type Wako Glu2 (Wako Pure Chemicals) while triglyceride was quantified using L-type Wako TG.H (Wako Pure Chemical). The value of treatment group is represented as percentage reduction compared with the non-treatmet group.

KKA^γ mice = assay: Hypoglycemic and hypolipidemic actions in mice; type: in vivo; conditions: 0.01% in powdery diet for four days, percentage reduction compared with non-treatment group
Protocol: Crystals of the test compound were mixed in a powdery diet (CE-2; Japan Clea) at a concentration of 0.01%, and freely given to KKA^γ mice (11 weeks old; five mice in a group), a model of obesity and type 2 diabetes mellitus, for four days. During that period, water was given freely. Blood was sampled from orbital venous plexus and measurement of the components was carried out using serum. Glucose was quantified using L-type Wako Glu2 (Wako Pure Chemicals) while triglyceride was quantified using Iatro-MA701 TG kit (Iatron Laboratories Inc.). The value of treatment group is represented as percentage reduction compared with the non-treatmet group.

Cc1oc(-c2ccccc2)nc1COc1ccc(CO/N=C(\CCC(=O)O)c2ccccc2)cc1 [Crystals of Example 1, (E)-4-[4-(5-methyl-2-phenyl-4-oxazolylmethoxy)benzyloxyimino]-4-phenylbutyric acid]
Hypoglycemic Action (%) (Wistar fatty rats; serum glucose): 60%
Hypolipemic Action (%) (Wistar fatty rats; serum triglyceride): 85%

Cc1oc(-c2ccccc2)nc1COc1ccc(CO/N=C(\CCC(=O)O)c2ccccc2)cc1 [Crystals of Reference Example 4, (E)-4-[4-(5-methyl-2-phenyl-4-oxazolylmethoxy)benzyloxyimino]-4-phenylbutyric acid]
Hypoglycemic Action (%) (KKA^γ mice; serum glucose): 42%
Hypolipemic Action (%) (KKA^γ mice; serum triglyceride): 61%
